In assay [1] the target is T1, α4β2 subtype of nicotinic acetylcholine receptors (Rattus norvegicus, UniProt P09483+P12390).
T1 construct: examined using rat brain membrane obtained from whole homogenized brain; from tissue; host or cells: rat whole brain membranes (Fischer-344 male rats)
Briefly: Binding assay at α4β2 subtype of nicotinic acetylcholine receptors ([3H]-cytisine, rat brain membrane). The text has this:
(§1) The methods for evaluating the binding capabilities of the compounds at nicotinic acetylcholine receptors are different by subtypes of receptors. The binding capabilities of the compounds at α4β2 nicotinic acetylcholine receptors are examined using rat brain membrane obtained from whole homogenized brain, and determining the inhibiting rate of the compounds against [^3H]-cytisine binding to said brain membrane. Furthermore, the binding capabilities of the compounds at α1β1γδ nicotinic acetylcholine receptors are examined using homogenized rat muscle, and determining the inhibiting rate of the compounds against [^3H]-α-bungarotoxin binding to said muscle homogenate.
Binding Assays at α4β2 Subtype of Nicotinic Acetylcholine Receptors
(1) Preparation of Rat Brain Membrane Containing α4β2 Subtype of Nicotinic Acetylcholine Receptors
Rats were housed in the breeding cage controlled of the room temperature at 23±1° C., and the humidity of 55±5% for 1 to 4 weeks. Rats (3 to 4 rats per a cage) were housed with lights on for 12 hours daily (from 7:00 to 19:00), and allowed free access to food and water.
Preparation of rat brain membrane containing α4β2 subtype of nicotinic acetylcholine receptors was performed as follow. That is, rat brains were isolated just after sacrificed by decapitation, washed with ice-cooled saline solution and then frozen at −80° C. with liquid nitrogen and stored till using. After thawing the frozen brain, the brain was homogenized in 10 volumes of ice-cooled buffer solution (50 mM of Tris-HCl, 120 mM of NaCl, 5 mM of KCl, 1 mM of MgCl2, 2 mM of CaCl2; pH 7.4; 4° C.) using homogenizer (HG30, Hitachi Kohki Ltd.) for 30 seconds, and the homogenate were centrifuged under 1,000×G for 10 minutes at 4° C. The resulting supernatant was separated and the pellet was homogenized again with half volume of aforementioned prior buffer solution and centrifuged under the same conditions. Combined supernatant was further centrifuged under 40,000×G for 20 minutes at 4° C. The pellet was suspended in buffer solution and used for binding assays at receptors.
(2) Experiments of α4β2 Subtype of Nicotinic Acetylcholine Receptors Binding
Suspensions of membrane pellets containing 400-600 μg of protein were added to test tubes containing test compounds and [^3H]-cytisine (2 nM) in a final volume of 200 μl and incubated for 75 minutes in ice-cooled bath. The samples were isolated by vacuum filtration onto Whatman GF/B filters, which were prerinsed with 0.5% polyethylenimine just prior to sample filtration, using Brandel multi manifold cell harvester. The filters were rapidly washed with buffer solution (3×1 ml). The filters were counted in 3 ml of clearsol I (Nacalai Tesque Inc.).
The analyses of the experimental results were conducted by using the Accufit Competition Program (Beckman Ltd.).

Assay [2] deals with α1β1γδ subtype of nicotinic acetylcholine receptors (Rattus norvegicus, UniProt P18916+P25108+P25109+P25110). Briefly: biochemical. It is filed as binding. The note with it: for remaining activity at 100 µM: read-out: control % of [3H]-α-Bgt binding at 100 μM of test compound; for remaining activity at 1000 µM: read-out: control % of [3H]-α-Bgt binding at 1,000 μM of test compound.
Excerpt: as §1
Binding Assays at α1β1γδ Subtype of Nicotinic Acetylcholine Receptors
The affinity of the compounds of the present invention to α1β1γδ subtype of nicotinic acetylcholine receptors was measured by the following method, which was modified method described by Garcha H. S., Thomas P., Spivak C.
(1) Preparation of Rat Skeletal Muscles Containing α1β1γδ Subtype of Nicotinic Acetylcholine Receptors
The substantially same animals described in the Biological Experiment 1 were used.
The isolation of α1β1γδ subtype of nicotinic acetylcholine receptors was performed as follow. That is, rat posterior skeletal muscles were isolated just after sacrificed by decapitation, washed with ice-cooled saline solution and then frozen at −80° C. with liquid nitrogen and stored till using. After thawing the frozen muscles, tissue was homogenized ([…]) with buffer solution [2.5 mM of sodium phosphate buffer (pH:7.2), 90 mM of NaCl, 2 mM of KCl, 1 mM of EDTA, 2 mM of benzamidine, 0.1 mM of benzethonium chloride, 0.1 mM of PMSF, 0.01% of sodium azide] in Waring blender (Waring blender 34BL97; WARING PRODUCTS DIVISION DYNAMICS CORPORATION OF AMERICA) for 60 seconds. The homogenate were centrifuged under 20,000×G for 60 minutes at 4° C. The supernatant was separated and the resulting pellet was added to the same buffer (1.5 ml/g wet weight), and homogenized under the same conditions. Triton X100 (2% w/v) was added and the mixture was stirred for 3 hours at 4° C. The centrifugation at 100,000×G for 60 minutes at 4° C. yielded the rat muscle extract as supernatant. This was stored at 4° C. for up to 4 weeks, and used for binding assays at receptors.
(2) Experiments of α1β1γδ Subtype of Nicotinic Acetylcholine Receptors Binding
Receptors binding experiments were performed as follow. That is, the extract of rat muscle containing 600-900 μg of protein was added to test tubes containing test compounds and incubated for 15 minutes at 37° C. Then, to this mixture was added 1 nM of [^3H]-α-bungarotoxin (α-Bgt) and further incubated for 2 hours. The samples were isolated by vacuum filtration onto Whatman GF/B filters, which were prerinsed with 0.5% polyethylenimine just prior to sample filtration, using Brandel multi manifold cell harvester. The filters were rapidly rinsed with washing solution (10 mM of KH2PO4, 150 mM of NaCl, pH 7.2, room temperature) (5×1 ml). The filters were counted in 3 ml of clearsol I (Nacalai Tesque Inc.). The determination of nonspecific binding was incubated in the presence of 1 μM α-Bgt. […] In the receptor binding experiments, said buffer solution was added for adjusting the final concentration of BSA to be 0.05%.
The analyses of the experimental results were conducted by the same way as described in the Biological Experiment 1.

pKi: −log10 of the molar value.

T1 sequence (P09483 31-630): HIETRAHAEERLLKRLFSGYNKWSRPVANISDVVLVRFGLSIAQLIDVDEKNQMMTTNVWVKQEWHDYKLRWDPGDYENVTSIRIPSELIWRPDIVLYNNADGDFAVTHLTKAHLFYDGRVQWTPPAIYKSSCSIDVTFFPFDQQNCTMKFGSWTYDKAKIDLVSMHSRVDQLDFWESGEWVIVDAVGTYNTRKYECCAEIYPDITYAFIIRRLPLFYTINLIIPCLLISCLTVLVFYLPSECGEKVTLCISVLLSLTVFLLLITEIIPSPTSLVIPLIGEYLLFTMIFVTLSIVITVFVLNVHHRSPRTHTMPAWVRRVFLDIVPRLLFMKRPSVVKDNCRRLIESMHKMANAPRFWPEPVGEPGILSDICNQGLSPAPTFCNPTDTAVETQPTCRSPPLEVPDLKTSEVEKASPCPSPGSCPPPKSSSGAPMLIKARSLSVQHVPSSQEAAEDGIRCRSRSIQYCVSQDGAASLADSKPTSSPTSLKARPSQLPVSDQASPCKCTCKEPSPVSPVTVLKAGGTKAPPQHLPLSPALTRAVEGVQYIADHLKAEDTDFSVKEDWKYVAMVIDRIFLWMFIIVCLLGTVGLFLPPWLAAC
T1 sequence (P12390 25-500): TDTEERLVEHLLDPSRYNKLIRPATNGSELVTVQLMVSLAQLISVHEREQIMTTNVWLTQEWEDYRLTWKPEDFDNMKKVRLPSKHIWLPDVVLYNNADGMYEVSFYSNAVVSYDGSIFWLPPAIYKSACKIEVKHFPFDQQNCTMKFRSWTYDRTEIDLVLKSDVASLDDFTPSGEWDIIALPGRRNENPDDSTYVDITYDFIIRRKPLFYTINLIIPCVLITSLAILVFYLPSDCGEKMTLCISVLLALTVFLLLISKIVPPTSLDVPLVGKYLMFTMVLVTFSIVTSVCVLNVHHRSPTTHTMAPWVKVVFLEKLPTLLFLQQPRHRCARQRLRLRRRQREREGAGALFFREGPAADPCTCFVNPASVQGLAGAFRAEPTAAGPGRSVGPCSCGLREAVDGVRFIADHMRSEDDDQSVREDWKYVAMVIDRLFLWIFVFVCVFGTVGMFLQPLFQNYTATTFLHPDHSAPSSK
α1β1γδ subtype of nicotinic acetylcholine receptors, sequence (P25109 24-501): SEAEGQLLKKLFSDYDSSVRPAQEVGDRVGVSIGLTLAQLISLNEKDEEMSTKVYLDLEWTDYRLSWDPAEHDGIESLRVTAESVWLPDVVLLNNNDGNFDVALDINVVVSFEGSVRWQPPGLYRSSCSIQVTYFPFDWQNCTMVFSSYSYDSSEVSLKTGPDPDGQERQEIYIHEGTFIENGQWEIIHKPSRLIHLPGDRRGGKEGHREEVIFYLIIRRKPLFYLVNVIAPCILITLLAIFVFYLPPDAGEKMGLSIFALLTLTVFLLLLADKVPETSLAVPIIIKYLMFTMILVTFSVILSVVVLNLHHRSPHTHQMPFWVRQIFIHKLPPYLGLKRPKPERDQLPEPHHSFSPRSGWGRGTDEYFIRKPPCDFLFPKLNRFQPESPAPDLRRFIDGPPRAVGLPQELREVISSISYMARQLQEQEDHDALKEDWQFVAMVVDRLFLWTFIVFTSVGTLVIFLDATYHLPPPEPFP
α1β1γδ subtype of nicotinic acetylcholine receptors, sequence (P25110 22-517): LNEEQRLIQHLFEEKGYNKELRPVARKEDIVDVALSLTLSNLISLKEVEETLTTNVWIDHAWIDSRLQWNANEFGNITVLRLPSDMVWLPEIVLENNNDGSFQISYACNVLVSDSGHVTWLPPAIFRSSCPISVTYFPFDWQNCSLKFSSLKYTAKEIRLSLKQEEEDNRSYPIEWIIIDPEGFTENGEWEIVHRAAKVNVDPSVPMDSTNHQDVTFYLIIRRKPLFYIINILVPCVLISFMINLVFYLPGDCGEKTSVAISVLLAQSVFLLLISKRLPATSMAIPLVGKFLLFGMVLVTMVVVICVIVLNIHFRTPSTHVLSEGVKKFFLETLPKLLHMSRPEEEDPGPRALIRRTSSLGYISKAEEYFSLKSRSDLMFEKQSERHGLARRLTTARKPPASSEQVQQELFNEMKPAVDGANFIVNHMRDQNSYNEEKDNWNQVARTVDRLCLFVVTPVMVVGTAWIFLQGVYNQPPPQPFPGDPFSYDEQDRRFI
α1β1γδ subtype of nicotinic acetylcholine receptors, sequence (P25108 21-457): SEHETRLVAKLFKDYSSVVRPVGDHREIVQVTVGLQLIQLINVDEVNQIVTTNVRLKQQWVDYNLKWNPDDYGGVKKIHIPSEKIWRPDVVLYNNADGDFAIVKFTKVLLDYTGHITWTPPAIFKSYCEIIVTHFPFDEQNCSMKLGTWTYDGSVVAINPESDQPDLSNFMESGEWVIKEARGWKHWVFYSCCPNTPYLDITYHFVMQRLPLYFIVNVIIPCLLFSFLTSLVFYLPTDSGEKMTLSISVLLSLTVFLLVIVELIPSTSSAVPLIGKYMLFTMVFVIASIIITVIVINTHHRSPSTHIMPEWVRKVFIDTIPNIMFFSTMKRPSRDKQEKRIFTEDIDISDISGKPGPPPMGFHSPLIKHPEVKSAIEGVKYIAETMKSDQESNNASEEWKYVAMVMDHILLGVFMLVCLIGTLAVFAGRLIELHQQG

In assay [1], `Clc1ccc(C2=NCCCN2)cn1` [Compound 2, 2-(6-chloro-3-pyridyl)-1,4,5,6-tetrahydropyrimidine] showed a negative logarithm of the Ki (pKi) of 7.89. Moreover, in assay [2], the remaining activity at 100 µM is 34% and the remaining activity at 1000 µM amounted to 6%.
In turn, `CN1CCN=C1c1ccc(Cl)nc1` [Compound 3, 2-(6-chloro-3-pyridyl)-1-methyl-2-imidazoline] had a pKi in assay [1] of 7.35. Moreover, in assay [2], the remaining activity at 100 µM is 34% and the remaining activity at 1000 µM was 5%.
With `Clc1ncc(C2=NCCCN2)s1` [Compound 22, 2-(2-chloro-5-thiazolyl)-1,4,5,6-tetrahydropyrimidine], in assay [1], the pKi is 6.37. In addition, in assay [2], the remaining activity at 100 µM is 23% and the remaining activity at 1000 µM was -4%.

These data come from patent US20030100769A1, “Cyclic amidine compounds” (priority 2000, published 2003).
